US20260256792A1, “TREATMENT OF CHRONIC SPONTANEOUS URTICARIA BY ADMINISTERING (R)-2-[3-[4-AMINO-3-(2-FLUORO-4-PHENOXY-PHENYL)PYRAZOLO[3,4-D]PYRIMIDIN-1-YL]PIPERIDINE-1-CARBONYL]-4-METHYL-4-[4-(OXETAN-3-YL)PIPERAZIN-1-YL]PENT-2-ENENITRILE” (priority 2023, published 2026)

System: moderate-to-severe chronic spontaneous urticaria (CSU)
Experiment: Phase 2 CSU study: urticaria activity score over 7 days (UAS7)
Format: in vivo, human
Parameters: key to UAS7 Median / UAS7 Change from baseline Median / UAS7 change from baseline, Q1 / UAS7 change from baseline, Q3 / UAS7 change from baseline, Max / UAS7 Change from baseline LS Mean (SE): UAS7 points; daily UAS score ranges 0–6 points/day, over 7 days
Details: for UAS7 change from baseline at Week 12, LS Mean (SE): ANCOVA; for UAS7 Mean (SD) / UAS7 Median: End of Study; for UAS7 % Change difference for rilzabrutinib vs. placebo LS Mean (95% CI) / UAS7 % Change from baseline LS Mean (SE) / UAS7 Change difference for rilzabrutinib vs. placebo LS Mean (95% CI) / UAS7 Change from baseline LS Mean (SE): ITT Population
Text: The study comprises a 12 week, randomized, double-blind, placebo-controlled, multi-center, dose-ranging efficacy and safety phase, followed by a 40 week open label extension (OLE) phase (see FIG. 1). The study consists of three phases and an optional OLE phase. […] Clinically, CSU is characterized by the spontaneous and recurrent appearance of pruritic hives. The proposed primary endpoints were the UAS7 at Week 12 in EU and EU reference countries and the ISS7 in the US. Regardless of where a participant was from, all assessments were the same. The UAS7 score is a composite score containing both the HSS7 and the ISS7. This allowed a global assessment of the two key components of urticaria: hives and itch. […] The UAS is a validated PRO measure. […] The daily UAS scores range from 0 to 6 point/day. […] Patients were to complete the UAS using the e-diary. […] The following secondary endpoints were to be analyzed using the same approach as for the primary endpoint: • Change from baseline in UAS7 at Week 4 • Change from baseline in UAS7 at Week 12 (for US and US reference countries) • Change from baseline in ISS7 at Week 12 (except US and US reference countries) • Change from baseline in HSS7 at Week 12 The following responder secondary endpoints were to be analyzed using the Cochran-Mantel-Haenszel test adjusted by region: • Proportion of participants with UAS7<6 at Week 12 • Proportion of participants with UAS7=0 at Week 12 Participants who received selected prohibited medications and/or rescue medications were to be considered as non-responders for time points after the medication usage. For other participants, all available data including those collected during the off-treatment period were to be used to determine the responder/non-responder status. Missing data were to be considered as non-responders.

[1] = 400 mg TID, Omalizumab-Naïve Population (N = 35), double-blind period, last week block of Table 17 (week heading not shown), n observed/imputed 5 (3/2)
[2] = 400 mg TID, Patients with Prior Omalizumab Use, Including Omalizumab-Incomplete Responders (N = 6), double-blind period, last week block of Table 17 (week heading not shown), n observed/imputed 2 (0/2)
[3] = 400 mg TID, Week 12, omalizumab-naïve
[4] = 400 mg TID, omalizumab-naïve population
[5] = 400 mg TID, omalizumab-naïve population with outlier removed
[6] = 400 mg TID, Prior Omalizumab Use

CC(C)(C=C(C#N)C(=O)N1CCC[C@@H](n2nc(-c3ccc(Oc4ccccc4)cc3F)c3c(N)ncnc32)C1)N1CCN(C2COC2)CC1 [rilzabrutinib, (R)-2-[3-[4-amino-3-(2-fluoro-4-phenoxy-phenyl)pyrazolo[3,4-d]pyrimidin-1-yl]piperidine-1-carbonyl]-4-methyl-4-[4-(oxetan-3-yl)piperazin-1-yl]pent-2-enenitrile]
UAS7 change from baseline at Week 12, LS Mean Diff vs. placebo (95% CI) (400 mg TID, ITT population): −6.76 (−12.01, −1.51) | UAS7 change from baseline at Week 12, Mean (SD) (400 mg TID, ITT population): −20.30 (12.41) ^ | UAS7 change from baseline at Week 12, Median (400 mg TID, ITT population): −20.33 | UAS7 change from baseline at Week 12, LS Mean (SE) (400 mg TID, ITT population): −17.95 | UAS7 change from baseline at Week 12, LS Mean (SE) (400 mg TID, ITT population, listed as Rilzabrutinib): −17.95 (1.95) | decrease from baseline in UAS7 (400 mg TID, ITT population, belongs to LS mean change −12.72): 40.18% | LS mean change in UAS7 from baseline to Week 12 (see Table 18) (400 mg TID, ITT population, sentence on reductions following one week of treatment): −12.72 | UAS7 Change from baseline Mean (SD) [1]: −11.40 (6.62) | UAS7 Change from baseline Median [1]: −14.00 | UAS7 Percent change from baseline Mean (SD) [1]: −38.24 (25.31) % | UAS7 Percent change from baseline Median [1]: −45.95% | UAS7 change from baseline, Max [1]: 0.0 | UAS7 change from baseline, Min [1]: −17.0 | UAS7 change from baseline, Q1 [1]: −14.00 | UAS7 change from baseline, Q3 [1]: −12.00 | UAS7 percent change from baseline, Max [1]: 0.0% | UAS7 percent change from baseline, Q1 [1]: −50.00% | UAS7 percent change from baseline, Q3 [1]: −28.57% | UAS7 Change from baseline Mean (SD) [2]: −3.50 (4.95) | UAS7 Change from baseline Median [2]: −3.50 | UAS7 Percent change from baseline Mean (SD) [2]: −21.88 (30.94) % | UAS7 Percent change from baseline Median [2]: −21.88% | UAS7 change from baseline, Max [2]: 0.0 | UAS7 change from baseline, Min [2]: −7.0 | UAS7 change from baseline, Q1 [2]: −7.00 | UAS7 change from baseline, Q3 [2]: 0.00 | UAS7 percent change from baseline, Max [2]: 0.0% | UAS7 percent change from baseline, Min [2]: −43.8% | UAS7 percent change from baseline, Q1 [2]: −43.75% | UAS7 percent change from baseline, Q3 [2]: 0.00% | participants with UAS7 of 0 [3]: 20.0% | participants with UAS7 of ≤6 [3]: 34.3% | LS mean reduction in UAS7 from baseline to Week 12 (see Table 19) [4]: −11.44 | UAS7 at Week 12, Mean (SD) [4]: 11.00 (9.90) | UAS7 at Week 12, Median [4]: 12.25 | UAS7 change from baseline at Week 12, LS Mean Diff vs. placebo (95% CI) [4]: −6.75 (−12.23, −1.26) | UAS7 change from baseline at Week 12, Mean (SD) [4]: −19.04 (11.40) ^ | UAS7 change from baseline at Week 12, Median [4]: −18.92 | UAS7 at Week 12, Mean (SD) [5]: 11.00 (9.90) | UAS7 at Week 12, Median [5]: 12.25 | UAS7 change from baseline at Week 12, LS Mean Diff vs. placebo (95% CI) [5]: −7.50 (−13.02, −1.97) | UAS7 change from baseline at Week 12, Mean (SD) [5]: −19.04 (11.40) ^ | UAS7 change from baseline at Week 12, Median [5]: −18.92 | UAS7 change from baseline at Week 12, LS Mean (SE) [5]: −17.50 | UAS7 change from baseline at Week 12, LS Mean (SE) (400 mg TID, omalizumab-naïve population with outlier removed, listed as Rilzabrutinib): −17.50 (2.06) | UAS7 change from baseline at Week 12, LS Mean (SE) [4]: −16.89 | UAS7 change from baseline at Week 12, LS Mean (SE) (400 mg TID, omalizumab-naïve population, listed as Rilzabrutinib): −16.89 (2.04) | UAS7 Mean (SD) (400 mg BID, Omalizumab-Naïve): 15.60 (17.52) | UAS7 Median (400 mg BID, Omalizumab-Naïve): 14.00 | UAS7 Mean (SD) (400 mg QPM, Omalizumab-Naïve): 11.70 (16.82) | UAS7 Median (400 mg QPM, Omalizumab-Naïve): 5.00 | UAS7 Mean (SD) (400 mg TID, Omalizumab-Naïve): 21.40 (11.74) | UAS7 Median (400 mg TID, Omalizumab-Naïve): 20.00 | UAS7 Mean (SD) [6]: 15.58 (9.31) | UAS7 Median [6]: 15.58 | UAS7 % Change difference for rilzabrutinib vs. placebo LS Mean (95% CI) (400 mg BID, Week 2): −17.26% | UAS7 % Change from baseline LS Mean (SE) (400 mg BID, Week 2): −36.13% | UAS7 Change difference for rilzabrutinib vs. placebo LS Mean (95% CI) (400 mg BID, Week 2): −4.49 | UAS7 Change from baseline LS Mean (SE) (400 mg BID, Week 2): −10.82 | UAS7 % Change difference for rilzabrutinib vs. placebo LS Mean (95% CI) (400 mg QPM, Week 3): −7.92% | UAS7 % Change from baseline LS Mean (SE) (400 mg QPM, Week 3): −29.55% | UAS7 Change difference for rilzabrutinib vs. placebo LS Mean (95% CI) (400 mg QPM, Week 3): −1.91 | UAS7 Change from baseline LS Mean (SE) (400 mg QPM, Week 3): −9.50 | UAS7 % Change difference for rilzabrutinib vs. placebo LS Mean (95% CI) (400 mg QPM, Week 5): −0.72% | UAS7 % Change from baseline LS Mean (SE) (400 mg QPM, Week 5): −32.52% | UAS7 Change difference for rilzabrutinib vs. placebo LS Mean (95% CI) (400 mg QPM, Week 5): −0.26
